Source: ChEMBL document CHEMBL4219070, “Probing biological activity through structural modelling of ligand-receptor interactions of 2,4-disubstituted thiazole retinoids” (Bioorg Med Chem, 2018)
The source made the active and inactive calls. The rule behind the calls is not given here.

How the values were obtained:
Homo sapiens = organism: Homo sapiens; assay: Induction of neuronal differentiation in human TERA2.cl.SP12 cells assessed as small and scattered colonies of TUJ-1 positive cells at 10 uM measured measured after 2 weeks by immunofluorescence method; format: functional, cell-based
SH-SY5Y = assay: Induction of neuronal differentiation in human SH-SY5Y cells assessed as increase in RARbeta mRNA expression at 0.001 to 1 uM measured after 8 hrs by RT-PCR analysis; format: functional, cell-based

Row | SMILES | Activity (Homo sapiens) | Activity (SH-SY5Y)
1 | CCOC(=O)c1ccc(-c2nc(-c3ccccc3)c(C)s2)cc1 | Active | 
2 | CCOCCOc1nc(-c2ccc(C(=O)O)cc2)sc1C | Active | Active
3 | CC1=C(/C=C/C(C)=C/C=C/C(C)=C/C(=O)O)C(C)(C)CCC1 |  | Active
